Assay results: ChEMBL document CHEMBL3272069, “Inhibition of acetylcholinesterase by thiamine. A structure-function study” (J Med Chem, 1977)
The source made the active and inactive calls. The calls are words filed in the database; no cut-off is given here.

Tests used:
[1] = Dissociation constant, pKa of the compound by potentiometric titration analysis; assay type: physicochemical
[2] = biological target: T1, Acetylcholinesterase (Electrophorus electricus, UniProt O42275); test: (§1) Noncompetitive inhibition of electric eel AChE using acetylthiocholine chloride as substrate at pH 7 by Michaelis-Menten plot analysis
T1 sequence (O42275 whole entry): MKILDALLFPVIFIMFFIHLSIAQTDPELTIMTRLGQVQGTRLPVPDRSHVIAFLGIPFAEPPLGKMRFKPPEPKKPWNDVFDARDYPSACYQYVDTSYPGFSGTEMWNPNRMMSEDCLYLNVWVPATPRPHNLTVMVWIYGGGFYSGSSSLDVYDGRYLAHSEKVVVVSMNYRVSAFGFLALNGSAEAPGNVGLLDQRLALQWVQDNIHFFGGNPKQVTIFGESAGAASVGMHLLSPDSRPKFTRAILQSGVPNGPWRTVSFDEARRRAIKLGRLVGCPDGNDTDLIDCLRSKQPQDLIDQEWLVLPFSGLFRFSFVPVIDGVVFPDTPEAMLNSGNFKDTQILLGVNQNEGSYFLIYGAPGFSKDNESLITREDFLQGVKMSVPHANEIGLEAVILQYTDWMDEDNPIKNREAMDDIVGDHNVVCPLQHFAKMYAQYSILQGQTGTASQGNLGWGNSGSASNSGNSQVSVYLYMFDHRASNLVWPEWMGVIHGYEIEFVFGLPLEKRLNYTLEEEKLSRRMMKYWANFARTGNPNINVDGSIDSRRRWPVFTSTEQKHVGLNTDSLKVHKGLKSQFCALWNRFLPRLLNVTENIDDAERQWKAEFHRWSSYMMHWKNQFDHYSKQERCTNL

[3] = biological target: T1, Acetylcholinesterase; test: (§2) Noncompetitive inhibition of electric eel AChE using acetylthiocholine chloride as substrate at pH 8.25 by Michaelis-Menten plot analysis
[4] = biological target: T1, Acetylcholinesterase; test: (§3) Competitive inhibition of electric eel AChE using acetylthiocholine chloride as substrate at pH 8.25 by Michaelis-Menten plot analysis
[5] = biological target: T1, Acetylcholinesterase; test: (§4) Competitive inhibition of electric eel AChE using acetylthiocholine chloride as substrate at pH 7 by Michaelis-Menten plot analysis
[6] = biological target: Acetylcholinesterase (Electrophorus electricus) (UniProt O42275); test: as §1
Sequence of Acetylcholinesterase (Electrophorus electricus) (O42275 24-633 limits assumed): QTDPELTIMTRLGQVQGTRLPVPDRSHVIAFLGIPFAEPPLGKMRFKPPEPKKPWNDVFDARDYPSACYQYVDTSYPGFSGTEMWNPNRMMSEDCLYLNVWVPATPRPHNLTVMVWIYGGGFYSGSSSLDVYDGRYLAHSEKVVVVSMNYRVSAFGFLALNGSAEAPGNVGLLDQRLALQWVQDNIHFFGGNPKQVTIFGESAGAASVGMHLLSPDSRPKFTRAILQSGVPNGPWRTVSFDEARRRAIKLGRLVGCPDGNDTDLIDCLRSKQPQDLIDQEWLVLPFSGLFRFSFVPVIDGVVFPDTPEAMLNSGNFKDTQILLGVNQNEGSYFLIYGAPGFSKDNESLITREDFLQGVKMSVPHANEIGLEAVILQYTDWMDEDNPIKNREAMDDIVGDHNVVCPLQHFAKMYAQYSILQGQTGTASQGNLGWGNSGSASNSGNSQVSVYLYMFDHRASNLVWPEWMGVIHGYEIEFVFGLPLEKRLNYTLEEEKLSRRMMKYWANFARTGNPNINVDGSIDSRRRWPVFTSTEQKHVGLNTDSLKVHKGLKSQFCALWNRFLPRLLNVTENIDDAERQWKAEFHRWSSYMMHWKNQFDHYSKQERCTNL

[7] = biological target: Acetylcholinesterase (Electrophorus electricus) (UniProt O42275); test: as §2
[8] = biological target: Acetylcholinesterase (Electrophorus electricus) (UniProt O42275); test: as §3
[9] = biological target: Acetylcholinesterase (Electrophorus electricus) (UniProt O42275); test: as §4

With `Cc1ncc(CN2CSC(CCO)C2C)c(N)n1` (stereo not drawn) the pKa [1] was 7.6, the Ki [2] was 624 µM and the Ki [3] was 839 µM. It also gave a Ki [4] of 496 µM and a Ki [5] of 188 µM.
`Cc1ncsc1CCO` showed a Ki [2] of 1370 µM, a Ki [3] of 706 µM and a Ki [4] of 8610 µM. It also gave a Ki [5] of 7990 µM.
Compound `Cc1csc[n+]1C` has a Ki [2] of 9.8 µM, a Ki [3] of 445 µM and a Ki [4] of 54.8 µM. The Ki [5] was 67.9 µM.
For `c1cscn1`, the inhibition [6] was “inactive”, the inhibition [7] was “inactive” and the inhibition [8] was “inactive”. The inhibition [9] was “inactive”.
In the case of `Nc1ccncn1`, the pKa [1] is reported as 5.71, the Ki [2] is reported as 8850 µM and the Ki [3] is reported as 4240 µM. The Ki [4] was 9720 µM and the Ki [5] was 5020 µM.
Work on `Cc1ncc(C[n+]2csc(CCO[P@](=O)(O)OP(=O)(O)O)c2C)c(N)n1` yielded a Ki [2] of 6740 µM, a Ki [3] of 58400 µM and a Ki [4] of 14200 µM. The Ki [5] was 14600 µM.
In the case of `Cc1ncc(C)c(N)n1`, the pKa [1] is reported as 6.5, the Ki [2] is reported as 260 µM and the Ki [3] is reported as 551 µM. For the same compound, the Ki [4] was 163 µM and the Ki [5] was 111 µM.
`Cc1ncc(C[n+]2csc(CCOP(=O)(O)O)c2C)c(N)n1` [MONOPHOSPHOTHIAMINE] showed a Ki [2] of 9270 µM, a Ki [3] of 5930 µM and a Ki [4] of 11300 µM. It also gave a Ki [5] of 3010 µM.
`Cc1c(CCO)sc[n+]1C` showed a Ki [2] of 1250 µM, a Ki [3] of 18800 µM and a Ki [4] of 75.6 µM. It also gave a Ki [5] of 148 µM.
In the case of `Cc1ncc(CS(=O)(=O)O)c(N)n1`, the inhibition [6] is reported as “inactive”, the inhibition [7] is reported as “inactive” and the inhibition [8] is reported as “inactive”. For the same compound, the inhibition [9] was “inactive”.
`Cc1cscn1` showed a Ki [2] of 3250 µM, a Ki [3] of 109000 µM and a Ki [4] of 6070 µM. The Ki [5] was 5420 µM.
For `Cc1ncc(C[n+]2csc(CCOP(=O)(O)OP(=O)(O)OP(=O)(O)O)c2C)c(N)n1`, the Ki [2] was 881 µM, the Ki [3] was 1000 µM and the Ki [4] was 10000 µM. The Ki [5] was 5200 µM.
For `CCc1scnc1C`, the Ki [2] was 1950 µM, the Ki [3] was 51100 µM and the Ki [4] was 562 µM. It also gave a Ki [5] of 468 µM.
In the case of `c1cncnc1`, the inhibition [6] is reported as “inactive”, the inhibition [7] is reported as “inactive” and the inhibition [8] is reported as “inactive”. The inhibition [9] was “inactive”.
`CCc1sc[n+](C)c1C` showed a Ki [2] of 5.43 µM, a Ki [3] of 0.935 µM and a Ki [4] of 8.34 µM. It also gave a Ki [5] of 11.1 µM.
Compound `C[n+]1ccsc1` has a Ki [2] of 939 µM, a Ki [3] of 2.95 µM and a Ki [4] of 286 µM. It also gave a Ki [5] of 317 µM.
`Cc1ncc(C[n+]2csc(CCO)c2C)c(N)n1` [THIAMINE] showed a Ki [2] of 565 µM, a Ki [3] of 333 µM and a Ki [4] of 392 µM. For the same compound, the Ki [5] was 432 µM.
`Cc1ncc(CN2CSC3CCOC32C)c(N)n1` (stereo not drawn) gave a Ki [3] of 237 µM and a Ki [4] of 541 µM.
